One assay concerns the target anti-LPA antibody, 504B3. In words: free solution assay (FSA) measured in a compensated interferometric reader (CIR), equilibrium binding of lipids to antibody. Details: species or system murine. Particulars: 5 μg/ml 504B3, 0–50 nM ligand; for Kd: read-out: KD from FSA ± SD (95% CI); for Bmax (95% CI): one-site specific binding fit of the ΔRI signal. On the procedure: The FSA configuration required refractive index (RI)-matched sample and reference solutions (Fig. 2). The binding affinity determinations were done in an end-point assay format. A ligand dilution series (100, 20, 4, 0.8, 0.16, 0.032, and 0 nM) was prepared in 0.01% BSA / 0.002% EtOH/Phosphate buffered saline (PBS; ThermoFisher Scientific, Waltham, MA, USA) from an intermediate stock of 200 nM LPs in 0.01% BSA / 0.002% EtOH/PBS. Lipids were prepared in fatty acid-free BSA solutions to approximate the biological conditions of LPs. Then, each LP dilution was combined with PBS-only to create the reference solution, or 10 μg/ml of the 504B3 antibody in PBS to create the corresponding binding sample solution (Fig. 2). Sample and reference solutions were kept at RT in a shaker for approximately 1-h to reach equilibrium and then analyzed using the CIR. The final concentrations were 5 μg/ml of antibody and 0–50 nM of ligand in a final buffer composition of 0.005% BSA / 0.001% EtOH/PBS. The details of the interferometer instrumentation have been described elsewhere. Briefly, it consists of a diode laser, two mirrors, one glass capillary, and a CCD camera. Droplet trains of sample-reference pairs were maintained at a constant flow rate in the capillary using a droplet generator (Mitos Dropix; Dolomite Microfluidics, (Royston, North Hertfordshire, UK)) and a syringe pump (Harvard Apparatus, Holliston, MA, USA). Together, the interferometer, a syringe pump (at a flow rate of 10 μL/min), and a droplet generator comprise the CIR. The RI change between the binding sample and reference was measured as a positional shift in backscattered interference fringes produced from the interaction between an expanded beam profile of the laser and a capillary filled with sample-reference solutions [24]. The shift of the backscattered fringe patterns, which is equivalent to molecular binding, was quantified using fast Fourier transform of selected fringes captured in a CCD array. The assay was measured sequentially, as reference, then sample for each concentration, as described previously. The concentration dependent signal was plotted using a non-linear regression, one-site specific binding (Y=Bmax*X/(KD + X) + D; where D is the offset value) isotherm fit in GraphPad Prism Version 8 to determine the equilibrium dissociation constants (KDs). […] The sample and reference solutions were prepared by mixing a ligand dilution series (0–100 nM) with an equivalent volume of the 504B3 solution (sample; 10 μg/ml dissolved in PBS, pH 7.4) or PBS only (reference) (Fig. 2).

Another assay deals with LPA1. Details: method as in PMID 30463988, PMID 32513900. Particulars: CIR; cited from earlier work.
[1] abbreviates: 0.005% BSA / 0.001% EtOH/PBS, about 1 h at RT, one-site specific binding fit.

Where “and” joins values, the source holds several entries; their conditions need not be identical. Equal entries are not always repeated. A value given as a limit tells only on which side of the number the result lay.

`CCCCCCCC/C=C\CCCCCCCC(=O)OC[C@@H](O)COP(=O)(O)O` [18:1 LPA, 1-oleoyl-LPA (18:1)]: on anti-LPA antibody, 504B3 (setting [1]), the Kd came out at 3.7 ± 2.8 nM. Further, the “Bmax (95% CI)” value in the assay on anti-LPA antibody, 504B3 is listed as 0.17 (0.14 to 0.25). At LPA1, the “native equilibrium binding (KD) to LPA1” value was “comparable binding”.
As to `CCCCCCCCCCCCC/C=C/[C@@H](O)[C@@H](N)COP(=O)(O)O` [18:1 S1P, sphingosine 1-phosphate (d18:1)], the “specific binding signal (ΔRI) with 504B3” value was “No specific binding signal” in the assay with anti-LPA antibody, 504B3 and “no signal” with anti-LPA antibody, 504B3 (listed as S1P).
In the case of `CCCCCCCC/C=C\CCCCCCCC(=O)OC[C@@H](O)COP(=O)([O-])OCC[N+](C)(C)C` [18:1 LPC, 1-oleoyl-lysophosphatidylcholine], on anti-LPA antibody, 504B3 (setting [1]), the Kd is ~8.5 nM and 8.5 nM. In the assay with anti-LPA antibody, 504B3, the “Bmax (95% CI)” value is 0.14 (0.12 to 0.16).
`CCCCCCCCCCCCCCCC(=O)OC[C@@H](O)COP(=O)(O)O` [16:0 LPA, 1-palmitoyl-LPA (16:0)]: on anti-LPA antibody, 504B3 (setting [1]), the “KD from FSA ± SD (95% CI)” value is on record as “weaker affinity” and the Kd is more than 30 nM. Besides, the “Bmax (95% CI)” value with anti-LPA antibody, 504B3 is listed as 0.39 (undetermined^a). The “native equilibrium binding (KD) to LPA1” value at LPA1 was “comparable binding”.

Source of the values: article PMC8048308, “Lysophosphatidic acid (LPA)-antibody (504B3) engagement detected by interferometry identifies off-target binding” (Lipids in Health and Disease, 2021).
